Experiments:
[1] = pH titration of probe fluorescence; type: physicochemical; conditions: 10 µM in PBS, fluorescence at 580 nm, excitation 560 nm, no Sn^2+
Procedure: pH titration of Compounds R1 and R2 is described. Stock solutions of Compounds R1 and R2 are respectively added to sodium phosphate buffers of various pH to a final concentration of 10 µM. The fluorescence emission spectra are recorded as a function of pH using λex at 560 nm. The titration curves are plotted by fluorescence emission intensities at 580 nm versus pH.
The impact of pH values on fluorescence is described. The pirolactam ring of the rhodamine derivatives will open in a certain pH range and indicates the fluorescence of rhodamine. It is therefore necessary to check the fluorescence properties of Compounds R1 and R2 in solutions with different pH values. […] Considering the application of Sn^2+ probe R1 and R2 intracellular or extracellular may be disturbed by the pH, the acid-base titration experiments are carried out by adjusting the pH with an aqueous solution of NaOH and HCl in Phosphate-Buffered Saline ("PBS") (Fig.2 a and b). […] Figures 2a and 2b show the dependence of fluorescence at 580 nm of comparative Compound R1 and inventive Compound R2 (10 µM) at different pH in PBS solution. Excitation was at 560 nm.

[2] = Metal ion sensing: fluorescence titration with Sn^2+ and selectivity against various metal ions; type: physicochemical; conditions: for fluorescence at 580 nm / fluorescence of the solution / selectivity on sensing Sn^2+: metal ions that turn fluorescence on: 20 µM in ethanol-water (1: 1, v/v, PH 7.04); for fluorescence at 580 nm: addition of Sn^2+ (0-20 eq); for fluorescence at 580 nm / selectivity on sensing Sn^2+: metal ions that turn fluorescence on / fluorescence enhancement by other transition and heavy metal ions: excitation 560 nm; for fluorescence of the solution: no metal ion added; for selectivity on sensing Sn^2+: metal ions that turn fluorescence on: various metal ions; for fluorescence enhancement by other transition and heavy metal ions: 20 µM, K^+, Ag^+, Ca^2+, Mg^2+, Zn^2+, Pb^2+, Ni^2+, Mn^2+, Co^2+, Cd^2+, Hg^2+
Procedure: Solutions of the metal ions (10.0 mM) are prepared in deionized water. A stock solutions of Compounds R1 and R2 (0.2 mM) are each prepared in ethanol and then diluted to 20 µM with ethanol-water (1: 1, v/v, pH 7.04) for spectral measurement. For titration experiments, a 2.0 mL solution of Compounds R1 and R2 (20 µM) are filled in a respective quartz optical cell of 1 cm optical path length. Sn^2+ stock solution is added into the quartz optical cell gradually by micro-pipette. Spectral data is recorded at 5 min after addition. In selectivity experiments, the test samples are prepared by placing appropriate amounts of metal ion stock into 2.0 mL solution of R1, R2 (20 µM). For fluorescence measurements, excitation is provided at 560 nm, while emission is collected from 565 to 700 nm.

Compound	pH range for inducing fluorescence turning on [1]	fluorescence at 580 nm [2]	fluorescence of the solution [2]	selectivity on sensing Sn^2+: metal ions that turn fluorescence on [2]	fluorescence enhancement by other transition and heavy metal ions [2]
Spiro[1H-isoindole-1,9'-[9H]xanthen]-3(2H)-one, 2-[2-[bis(2-hydroxyethyl)amino]amino]ethyl]-3',6'-bis(diethylamino) [Compound R1]	2.5-6	turned on and grown drastically	non-fluorescent	tuning on just in the presence of Sn^2+ and Cr^3+	minimal enhancement
CCN(CC)c1ccc2c(c1)Oc1cc(N(CC)CC)ccc1C21c2ccccc2C(=O)N1NC(=O)OC(C)(C)C [Compound R2]	2-4.5	turned on and grown drastically	non-fluorescent	tuning on just in the presence of Sn^2+ and Cr^3+	minimal enhancement
